According to patent US12310954B2, “Salivary gland regeneration” (The Regents of the University of California, priority 2018, dated 2025):

Legend:
SOX2^+ cells of the SLG = experiment: Pilocarpine treatment of mice, SOX2/Ki67 immunostaining of sublingual gland; format: in vivo, mouse; settings: wild-type mice, I.P. 4.5 mg/kg, vs saline
Method: Adult male C57BL/6 mice (aged between 6 and 8 weeks) were treated with pilocarpine (Sigma-Aldrich, P0472; 0.68 mg/ml in 0.9% sterile saline). Mice were anesthetized using isoflurane and injected I.P. with pilocarpine at a dose of 4.5 mg/kg bodyweight (200 μl), or 0.9% saline as a vehicle control. Mice were euthanized after 18 h and glands processed for immunofluorescent analysis. Whole-mount salivary gland and tissue section immunofluorescence analysis has been previously described (Knox et al., 2010). In brief, tissue was fixed with either ice-cold acetone/methanol (1:1) for 1 min or 4% PFA for 20-30 min followed by permeabilizing with 0.1-0.3% Triton X. Tissue was blocked overnight at 4° C. with 10% Donkey Serum (Jackson Laboratories, ME), 1% BSA (Sigma-Aldrich), and MOM IgG-blocking reagent (Vector Laboratories, CA) in 0.01% PBS-Tween 20. […] Antibodies were detected using Cy2-, Cy3-, or Cy5-conjugated secondary Fab fragment antibodies (Jackson Laboratories) and nuclei stained using Hoechst 33342 (1:1,000, Sigma-Aldrich). Fluorescence was analyzed using a Leica Sp5 confocal microscope and NIH ImageJ software. For immunofluorescent analyses (e.g., FIG. 2D), cells positively stained for markers were counted using ImageJ. Acinar cell size was measured using ImageJ. […]

[1] = long term oral use in patients; cited from earlier work
[2] = continuous oral administration, irradiated mice, vs untreated controls; cited from earlier work
[3] = long term oral administration; cited from earlier work

**Q.** For CC[C@@H]1C(=O)OC[C@@H]1Cc1cncn1C [pilocarpine], which “percentage of SOX2^+ cells” value (SOX2^+ cells of the SLG; 18 h post-injection) is on record?
**A.** The value was “not significantly changed”.

**Q.** What about the “percentage of proliferating SOX2^+ cells (SOX2^+Ki67^+ cells)” value (SOX2^+ cells of the SLG; sacrificed at 18 h) of the same compound?
**A.** Its value is “increased”.

**Q.** And the salivary gland function [1]?
**A.** Its salivary gland function is “improves salivary gland function”.

**Q.** What about the salivary flow [2] of the same compound?
**A.** The salivary flow was “promoted salivary flow”.

**Q.** What about the tumorigenicity [3] of the same compound?
**A.** The tumorigenicity was “not shown to be tumorigenic”.
